Assay results published in patent publication US20240294881A1, “CELL CULTURE SUPPLEMENT FOR PRODUCING STEM CELLS, AND METHOD FOR PRODUCING STEM CELLS” (OPTICELL, INC, priority 2021, published 2024).

Key:
Format in all cases: cell-based
[1] = test system: healthy human adult mammary gland epithelial cells; test: Real-time PCR of stem cell and three germ layer marker genes in mammary gland epithelial cell spheroids
Description: The analysis of expression of gene mRNA was performed by real-time PCR.
Specifically, on day 20 from the start of culture, spheroids were collected in a 15-mL centrifuge tube and centrifuged, and then washed with phosphate buffered saline (−) and collected. Two-dimensionally cultured cells in the culture vessel that was not coated with the cell culture supplement (control) (day 0) were washed with PBS (−) after removal of the medium, and the cells were detached from the plate with 0.05% trypsin-EGTA and dissociated, followed by collecting the cells in a 15-mL centrifuge tube and washing with PBS (−) again. A NucleoZOL reagent (Macherey-Nagel) was added to the spheroids, and RNA extracted according to the protocol recommended by the reagent manufacturer was determined to be template RNA. For real-time PCR analysis, PCR probes from QuantiFast Probe RT-PCR Kits (QIAGEN; No. 204454) and TagMan Gene Expression Assay Probe (Thermo Fisher Scientific) were used. PCR analysis was performed with a Rotor-Gene Q (QIAGEN) apparatus. The genes targeted for detection were the following three transcription factors: SOX2 (sex-determining region Y-box 2), OCT4 (octamer binding transcription factor 4), and NANOG (homeodomain transcription factor) as the probes for detecting the expression of undifferentiated stem cell marker genes; and β-actin was used as an endogenous control gene (FIG. 16).
For probes for detection of genes associated with primordial three germ layers, the following three triploblastic marker genes were used: SOX17 (sex-determining region Y-box 17; endoderm), GATA6 (GATA family of zinc finger transcription factors; mesoderm), and MAP2 (microtubule associated protein 2: ectoderm). For an endogenous control gene, TaqMan Gene Expression Assay Probe of ß-actin was used (FIG. 17).
In the gene expression analysis, relative quantification was performed according to the ΔΔCt method (Delta Delta Ct method). The results of analysis according to the ΔΔCt method show the amount of a gene expressed by control cells under the conditions of “no cell culture supplement, flat-bottom 2D growth, day 0” as “1.0” in relative terms, and the increase rate in “the expression level in spheroid proliferation on day 20” was determined by comparison.

[2] = test system: healthy human neonatal fibroblasts; test: Spheroid culture of healthy human neonatal fibroblasts in coated 6-well flat-bottom vessel, microscope observation; conditions: PS 6-well flat-bottom vessel coated with 0.125% solution; day 2 to day 20; uncoated control adhered and grew 2D
Description: 2 mL of an aqueous solution of the polypeptide represented by formula (1) (0.125%) (cell culture supplement) was added to a commercial polystyrene-made 6-well flat-bottom culture vessel (CellBIND, Corning) and allowed to stand at 4° C. for 24 hours.
Thereafter, the excess cell culture supplement was removed, and the remaining solution was dried in a dryer at 37° C. for 96 hours to complete coating treatment with the cell culture supplement. Healthy human neonatal fibroblasts (ATCC PCS-201-010, primary dermal fibroblasts, neonatal, referred to as “fibroblasts” below) were maintained and cultured in a serum-free medium (Promo Cell; fibroblast basal medium, basic-FGF 5 ng/mb and insulin 2.5 μg/mL). The fibroblasts floating in 2 mL of the medium were seeded in the culture vessel coated with the cell culture supplement at 2×10^6 cells/well and cultured at 37° C. under 5% CO2 conditions. For a control, fibroblasts were seeded in a culture vessel of the same type with no coating applied with the cell culture supplement (2×10^6 cells/well). Observation was performed with a microscope on day 2 and day 20 after the start of culture to capture images of spheroid formation (FIG. 5).

[3] = test system: healthy human adult skin fibroblasts; test: Spheroid culture of healthy human adult skin fibroblasts, microscope observation; conditions: 96-well round-bottom vessel coated with 0.125% solution; uncoated control grew 2D
Description: An aqueous solution of the polypeptide represented by formula (1) (0.125%) (cell culture supplement) was added to a commercial polystyrene-made 96-well round-bottom culture vessel (Nuncion Delta 96U Bottom, Thermo Fisher Scientific) and allowed to stand at 4° C. for 24 hours. The cell culture supplement solution was then removed and the coated cell culture supplement was dried in a dryer at 37° C. for 96 hours to complete the cell culture supplement coating process. Healthy human adult skin fibroblasts (Lonza, normal human dermal fibroblast-adult, referred to as “adult skin fibroblasts” below) were maintained and cultured in a serum-free medium (Fujifilm Wako Pure Chemical Corporation; DMEM/F12 medium, human serum albumin recombinant 0.5 mg/mL, human transferrin recombinant 10 μg/mL, basic-FGF 5 ng/ml, and insulin 2.5 μg/mL). Adult skin fibroblasts floating in 100 μL of the medium were seeded in the 96-well round-bottom culture vessel coated with the cell culture supplement at 2×10^4 cells/well and cultured at 37° C. under 5% CO2 conditions.

[4] = test system: HOS-143B (human osteosarcoma); test: Study of concentration of cell culture supplement: spheroid formation; conditions: 96-well flat-bottom plate, 3 days of culture
Description: An aqueous solution of the polypeptide represented by formula (1) (0.5%) was diluted 4-fold to 1024-fold to prepare different diluted solutions (cell culture supplement), and 100 μl of the solution was added to each well of a commercial 96-well flat-bottom plate (CellBIND, Corning) and allowed to stand at 4° C. for 16 hours.
Thereafter, the excess cell culture supplement was removed, and the remaining solution was dried under reduced pressure at room temperature for 24 hours. HOS-143B (human osteosarcoma) was seeded at 3,000 cells/well in a culture plate coated with the cell culture supplement and cultured at 37° C. under 5% CO2 conditions. The medium used was DMEM+10% FBS.

[5] = test system: healthy human adult mammary gland epithelial cells; test: Spheroid culture of healthy human adult mammary gland epithelial cells, microscope observation; conditions: culture vessel coated with 0.125% solution; day 2 to day 20; uncoated control grew 2D
Description: An aqueous solution of the polypeptide represented by formula (1) (0.125%) (cell culture supplement) was added to a commercial polystyrene-made 6-well flat-bottom culture vessel (CellBIND, Corning) and to a polystyrene-made 96-well round-bottom culture vessel (Nunclon Delta 96U Bottom, Thermo Fisher Scientific) and allowed to stand at 4° C. for 24 hours.
The cell culture supplement solution was then removed and the coated cell culture supplement was dried in a dryer at 37° C. for 96 hours to complete the cell culture supplement coating process. Healthy human adult mammary gland epithelial cells (ATCC PCS-600-010, primary mammary epithelial cells, referred to as “mammary gland epithelial cells” below) were maintained and cultured in a serum-free medium (Promo Cell; mammary epithelial cell growth medium, EGF 5 ng/ml, and insulin 2.5 μg/mL). In the culture vessels coated with the cell culture supplement, the mammary gland epithelial cells floating in 2 mL of the medium were seeded at 2×10^6 cells/well (6-well flat-bottom culture vessel) and the mammary gland epithelial cells floating in 100 μL of the medium were seeded at 2×10^4 cells/well (96-well round-bottom culture vessel). The cells of each culture vessel were cultured at 37° C. under 5% CO2 conditions. […]

[6] = day 20 of 3D spheroid culture, coated 96-well, 2D adhesion control without supplement = 1.0, ΔΔCt
[7] = day 20 of 3D spheroid culture, 2D control without supplement day 0 = 1.0, ΔΔCt
[8] = spheroids cultured for 20 days (FIG. 17 legend)

(Pro-Hyp-Gly)n [cell culture supplement]
GATA6 (mesoderm marker) gene expression ([1]; day 20 of 3D spheroid culture): no gene expression of GATA6 (mesoderm marker) was detected
NANOG gene expression level (increase vs control) [1, 6]: 28.7 fold
OCT4 gene expression level (increase vs control) [1, 6]: 1.5 fold
SOX2 gene expression level (increase vs control) [1, 6]: 24.0 fold
MAP2 gene expression level (increase vs control) [1, 7]: 2.7 fold
SOX17 gene expression level (increase vs control) [1, 7]: 124.7 fold
FOXA2 (endoderm) mRNA expression level [1, 8]: decreased
GATA4 (mesoderm) mRNA expression [1, 8]: undetectable
spheroid formation [2]: formed spheroids
spheroid formation [3]: formed spheroids
spheroid formation in plates coated with solutions diluted further than 256-fold [4]: No formation of spheroids was observed
dilution of the 0.5% aqueous solution used for coating at which formation of spheroids was observed ([4]; dilutions 4-fold to 1024-fold): ≤ 256 -fold diluted
spheroid formation [5]: self-assembled to form spheroids
